Measurements from PMC8752738, “A propolis-derived small molecule ameliorates metabolic syndrome in obese mice by targeting the CREB/CRTC2 transcriptional complex” (Nature Communications, 2022).
Values joined by “and” are separate entries in the source; they are usually repeats but may differ in a detail not shown here. Equal entries are not always repeated.

How the values were obtained:
[1] = target: T1, endogenous CREB / CRTC2 interaction (Mus musculus, UniProt Q01147); assay: Co-immunoprecipitation by anti-CRTC2 antibody, primary hepatocytes: CREB; type: cell-based
T1 construct: endogenous in cells; host or cells: mouse primary hepatocytes
T1 sequence (Q01147 whole entry): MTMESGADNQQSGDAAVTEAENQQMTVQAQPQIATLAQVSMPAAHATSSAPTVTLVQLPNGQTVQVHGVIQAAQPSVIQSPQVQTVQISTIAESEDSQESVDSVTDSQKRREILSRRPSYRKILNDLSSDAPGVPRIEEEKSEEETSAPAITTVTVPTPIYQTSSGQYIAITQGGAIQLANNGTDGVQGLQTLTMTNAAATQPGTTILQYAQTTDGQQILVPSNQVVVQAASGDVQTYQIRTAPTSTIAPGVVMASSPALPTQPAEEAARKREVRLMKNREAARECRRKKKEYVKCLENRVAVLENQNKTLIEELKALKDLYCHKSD
Experimental: Fig. 2 APC blocks interaction between CREB and CRTC2. a Analysis of GST-CREB immunoprecipitated with overexpressed FLAG-CRTC2 from the lysates of HEK293T cells. APC (10 μM) was added to the culture media for 1 h and the following IP mixture. The relative gray density of FLAG in GST-pull-down fraction is shown as a bar graph (bottom). One of three independent experiments is presented (top, n = 3). Data are represented as mean ± SEM); P values were determined by one-way ANOVA followed Dunnett’s multiple comparisons test. b Analysis of HA-CRTC2 immunoprecipitated with endogenous CREB from primary hepatocyte lysates. […] Data are represented as mean ± SEM; P values were determined by one-way ANOVA followed Dunnett’s multiple comparisons test. c Immunoblotting analysis of endogenous CREB, CRTC2, and CBP interaction by an anti-CRTC2 antibody from the lysate of primary hepatocytes. […] Data are represented as mean ± SEM; P values were determined by two-way ANOVA followed Bonferroni’s multiple comparisons test. d Immunoblotting analysis of protein GST-CREB recovered HIS-CRTC2-S171A proteins purified from E. coli. […] Data are represented as mean ± SEM; P values were determined by one-way ANOVA followed Dunnett’s multiple comparisons test (compared with APC = 0). […]

primary hepatocytes = assay: Glucose production assay; type: cell-based, mouse
Experimental: Primary hepatocytes were exposed to propolis, APC or vehicle control for 1-h prior to 4-h stimulation with glucagon, and then incubated in no-glucose no-phenol-red DMEM (Sigma) supplied with 2 mM sodium pyruvate (Sigma) and 10 mM sodium lactate (Sigma) for 8-h. Glucose levels in the media were detected using a GO kit (Sigma).

AMPK = assay: Phospho-AMPK immunoblot in primary hepatocytes; type: cell-based, mouse; details: for relative p-AMPK protein, mean: N=3 (0 μM = 1); for relative p-AMPK protein: Supp. fig.3e, individual replicates
Experimental: Immunoblotting and immunoprecipitation assays were performed as previously described, with antibodies recognizing CREB, Ser133-P-CREB, AMPK, P-AMPK, AKT, P-AKT (Cell Signaling), PGC-1α (Merck), CRTC2 (Calbiochem), PCK1 (Santa Cruz), SREBP1 (Santa Cruz), SREBP2 (BD), HA (Convance), LXRα (Santa Cruz), FLAG (Sigma), GST (Covance), HIS (Abmart), GAPDH (AOGMA), α-TUBULIN (Abmart), β-ACTIN (Abmart), and other antibodies (Supplementary Table 3). For immunostaining assays, primary cultured hepatocytes seeded on coverslips were fixed with 4% paraformaldehyde for 20 min, permeabilized with 0.3% Triton X-100 in PBS, and then blocked by 5% normal goat serum and 0.3% Triton X-100 in PBS, followed by incubation with anti-CREB (1:1000), anti-P-CREB (1:1000), or anti-HA (1:3000) antibodies for 1 h at 4 °C. Slides were then washed, and after washing, slides were incubated with fluorochrome-conjugated secondary antibodies (Invitrogen). Slides were then washed and mounted with Vectashield mounting media containing 4, 6-diamidino-2-phenylindole (DAPI).
1 Supplementary Figure 3. APC inhibits gluconeogenesis independent of CREB-phosphorylation,
2 cell toxin or AMPK activation. […]
20 e) Phosphate-AMPK level in primary hepatocytes incubated with APC or metformin (MET) at
21 indicated concentrations (0–200 μM) for 30 minutes (top). Relative P-AMPK normalized by AMPK is […]

Fasting blood glucose = type: in vivo, mouse; parameters: Blood glucose of CRTC2KO / blood glucose in CRTC2KO, mean: unit not given here; details: for blood glucose in CRTC2KO, mean / Blood glucose of CRTC2KO: Figure 9e, 20mg/kg; for blood glucose in CRTC2KO, mean: N 6
[2] = 200 μM (first of two lines printed 200)
[3] = 200 μM (second of two lines printed 200)

Structure (SMILES): CC(C)=CCc1cc(C=CC(=O)O)cc(CC=C(C)C)c1O [APC, 3,5-diprenyl-4-hydroxycinnamic acid]
- CREB/CRTC2 band gray signal, CRTC2-COIP fraction ([1]; Fig 2c replicates, APC+ (10 μM)): 0.6304 and 0.625 and 0.6291
- endogenous CREB co-immunoprecipitated by anti-CRTC2 antibody ([1]; primary hepatocyte lysates, APC 10 μM): significantly decreased
- glucose output and Pgc-1α, Pck1 expression in CRTC2-null primary hepatocytes (primary hepatocytes; glucagon, APC 10 μM): unable to further reduce
- glucose output induced by glucagon (primary hepatocytes; primary hepatocytes, APC 5 μM): reduced
- relative p-AMPK protein, mean (AMPK; 5 μM): 0.9451
- relative p-AMPK protein, mean (AMPK; 10 μM): 0.8939
- relative p-AMPK protein, mean (AMPK; 100 μM): 0.906
- relative p-AMPK protein, mean (AMPK; [2]): 0.9865
- relative p-AMPK protein, mean (AMPK; [3]): 1.094
- relative p-AMPK protein (AMPK; 5 μM): 1.019 and 0.9566 and 0.8598
- relative p-AMPK protein (AMPK; 10 μM): 0.8723 and 0.8495 and 0.96
- relative p-AMPK protein (AMPK; 100 μM): 0.9495 and 0.9349 and 0.8336
- relative p-AMPK protein (AMPK; [2]): 0.9904 and 0.9893 and 0.9798
- relative p-AMPK protein (AMPK; [3]): 1.017 and 1.161 and 1.105
- relative p-AMPK protein, column mean (AMPK; mean over all concentrations, 0 μM included): 0.971
- phosphorylation of AMPK (AMPK; primary hepatocytes, up to 200 μM): did not induce phosphorylation of AMPK
- fasting blood glucose levels (Fasting blood glucose; DIO and db/db mice, i.p. 20 mg/kg): remarkably decreased
- blood glucose in CRTC2KO, mean (Fasting blood glucose; CRTC2KO mice, group mean): 3.317
- Blood glucose of CRTC2KO (Fasting blood glucose; CRTC2KO mice, single animals): 3.3 (2×) and 3.8 and 2.6 and 3.1
- blood glucose in CRTC2KO, mean (Fasting blood glucose; WT mice, group mean): 3.65
- Blood glucose of CRTC2KO (Fasting blood glucose; WT mice, single animals): 2.1 and 3.3 and 3.2 (3×) and 4
- FBG in db/db, mean (Fasting blood glucose; Figure 9f, db/db, group mean, n 5): 19.96 mM
- Fasting blood glucose (Fasting blood glucose; Figure 9f, db/db, single animals): 13 mM and 22 mM and 26.3 mM and 18.9 mM and 19.6 mM
- Fasting blood glucose, mean of column B (Fasting blood glucose; Figure 8d, group mean, n=6, VEH mean 137.4): 91.6 mg/dL
- Fasting blood glucose (Fasting blood glucose; Figure 8d, individual mice): 79.2 mg/dL and 84.6 mg/dL and 110.4 mg/dL and 95.4 mg/dL and 102.6 mg/dL and 77.4 mg/dL
- fasting blood glucose levels (Fasting blood glucose; db/db mice, one oral delivery 5 mg/kg): little effect
- fasting blood glucose in db/db mice, mean (Fasting blood glucose; group mean, n=6): 109.4 mg/dL
- effect on fasting blood glucose in Crtc2KO mice (Fasting blood glucose; high-fat diet, oral 20 mg/kg daily, 3 days): abolished
- fasting blood glucose in db/db mice (Fasting blood glucose; individual mouse): 141.4 mg/dL and 95.6 mg/dL and 108 mg/dL and 121.6 mg/dL and 83.4 mg/dL and 106.2 mg/dL
